Measured values from patent US20100311835A1, “CIS-9, TRANS-11 ISOMER OF CONJUGATED LINOLEIC ACID (CLA) FOR TREATING INFLAMMATORY DISEASES” (COGNIS IP MANAGEMENT GMBH, priority 2003, published 2010).

Tests used:
[1] = system: IL-8; test: IL-8 in cell culture supernatants by ELISA, stimulated NHBE; assay type: cell-based, human; settings: 24 h
Procedure: (§1) • Cell cultures. The transformed human bronchial epithelial cell line BEAS-2B (Clonetics Cell Systems, St. Katharinen, Germany) and the normal human bronchial epithelial cell line in primary culture (American Type Culture Collection, Manassas, Va., USA) were cultured in T-25-tissue flasks in bronchial/tracheal epithelial cell basal medium (BEBM) supplemented with a variety of growth factors including bovine pituitary extract (0,052 mg/mL), human recombinant epidermal growth factor (0.5 ng/mL), hydrocortisone (0.5 μg/mL), epinephrine (0.5 μg/mL), transferrin (0.01 mg/mL), insulin (5 μg/mL), retinoic acid (0.1 ng/mL), triiodthyronine (6.5 ng/mL), gentamicin (0.05 mg/mL) and amphotericin (0.05 μg/mL), all purchased from Clonetics Cell Systems (St. Katharinen, Germany). Cultures were held at 37° C. in a humidified atmosphere of 5% CO2 in air and the medium was changed every other day. • Stimulation of cells and fatty acid supplementation. Cis-9,trans-11-CLA and linoleic acid (LA) were obtained from Matreya Inc. (Pleasant Gap, Pa., USA). Purified fatty acids in oil form were dissolved in 96% ethanol to give a 20-mM stock solution, which was further diluted in growth medium to produce the range of test concentrations (20 μg/mL, 10 μg/mL and 5 μg/mL CLA and LA, respectively). At confluence, the cells were detached by exposure to trypsin/EDTA solution (0.05/0.02% in Ca^2+- and Mg^2+-free phosphate buffered saline; Biochrom AG, Krefeld, Germany) and reseeded in 12-well plates at a concentration of 1×10^5 cells/well and cultured for 24 h to allow the cells to attach to the substratum. The medium was then replaced and a final volume of 1 ml of each CLA- and LA-test concentrations, supplemented with 5 μg LPS/mL (lipopolysaccharide, E-coli serotype 026:B6, Sigma, Taufkirchen, Germany) and 10% serum from allergic donors, was added to the wells. A similar volume of fatty acid-free medium containing the indicated stimuli and 0.4% ethanol, corresponding to the max. volume in experimental wells, was used in stimulated control. 1 ml of fresh growth medium containing 0.4% ethanol without any fatty acid and stimuli underwent the same measures of preparation and represented the unstimulated control. After incubation for 24 h at 37° C., supernatants were harvested, separated from non-adherent cells and cell debris by centrifugation (1300 rpm, 10 min), and kept at −20° C. until cytokine analysis. Cells were trypsinised to determine cell numbers and allow quantification of differences in cell proliferation in response to different treatments. • Measurement of IL-6 and IL-8 in cell culture supernatants. IL-6 and IL-8 production of epithelial cells were estimated in duplicate by enzyme-linked immunosorbent assay using commercially available ELISA kits (Pharmingen, Heidelberg, Germany) according to the manufacturer's guidelines. Standard curves and blank buffer were included in duplicate in each assay. When necessary, samples were diluted to fit into the assay range. Specific interleukin concentrations were expressed as picograms of interleukin per millilitre. • Estimation of cytokine gene expression with RT-PCR. Cultures of BEAS-2B and NHBE at an initial density of 1×10^5 cells/well were stimulated as described above and treated with cis-9,trans-11-CLA or LA in the highest concentration (20 μg/mL) for 4 h or 12 h before total cellular RNA was isolated for cytokine gene expression analysis by reverse transcriptase-polymerase chain reaction. Total RNA preparations were performed by DNase treatment according to the standard protocol of the High-Pure™ RNA isolation kit from Roche (Mannheim, Germany). For RT-PCR analysis, first strand cDNA was synthesized from extracted RNA using random primers, reagents and conditions supplied in the ProSTAR™ First-Strand RT-PCR kit from Stratagene (Amsterdam, Netherlands). One-tenth of the synthesized cDNA was subjected to PCRamplification in a total volume of 25 μl. […]

[2] = system: IL-8 mRNA; test: Quantification of IL-8 mRNA by RT-PCR in stimulated bronchial epithelial cells; assay type: cell-based, human; settings: 20 μg/mL, 4 h and 12 h, LPS/serum-stimulated, RT-PCR with cyclophilin as internal standard
Procedure: (§2) • Cell cultures. The transformed human bronchial epithelial cell line BEAS-2B (Clonetics Cell Systems, St. Katharinen, Germany) and the normal human bronchial epithelial cell line in primary culture (American Type Culture Collection, Manassas, Va., USA) were cultured in T-25-tissue flasks in bronchial/tracheal epithelial cell basal medium (BEBM) supplemented with a variety of growth factors including bovine pituitary extract (0,052 mg/mL), human recombinant epidermal growth factor (0.5 ng/mL), hydrocortisone (0.5 μg/mL), epinephrine (0.5 μg/mL), transferrin (0.01 mg/mL), insulin (5 μg/mL), retinoic acid (0.1 ng/mL), triiodthyronine (6.5 ng/mL), gentamicin (0.05 mg/mL) and amphotericin (0.05 μg/mL), all purchased from Clonetics Cell Systems (St. Katharinen, Germany). Cultures were held at 37° C. in a humidified atmosphere of 5% CO2 in air and the medium was changed every other day. • Stimulation of cells and fatty acid supplementation. […] Cells were trypsinised to determine cell numbers and allow quantification of differences in cell proliferation in response to different treatments. • Measurement of IL-6 and IL-8 in cell culture supernatants. […] Specific interleukin concentrations were expressed as picograms of interleukin per millilitre. • Estimation of cytokine gene expression with RT-PCR. […]

[3] = system: IL-6 mRNA; test: Quantification of IL-6 mRNA by RT-PCR in stimulated bronchial epithelial cells; assay type: cell-based, human; settings: 20 μg/mL, 4 h and 12 h, LPS/serum-stimulated, RT-PCR with cyclophilin as internal standard
Procedure: as §2

[4] = system: IL-6; test: IL-6 in cell culture supernatants by ELISA, stimulated BEAS-2B; assay type: cell-based, human
Procedure: as §1

[5] = system: NHBE; test: Proliferation of LPS/serum-stimulated cells (cell numbers after 24 h); assay type: cell-based, human
Procedure: as §1

[6] = system: BEAS-2B; test: as above; assay type: cell-based, human
Procedure: as §1

[7] = system: IL-6; test: IL-6 in cell culture supernatants by ELISA, stimulated NHBE; assay type: cell-based, human; settings: 24 h
Procedure: as §1

[8] = system: IL-8; test: IL-8 in cell culture supernatants by ELISA, stimulated BEAS-2B; assay type: cell-based, human
Procedure: as §1

[9] = system: eosinophilic granuloctyes; test: Apoptosis of eosinophilic granulocytes in vitro; assay type: cell-based
[10] = BEAS-2B, 5 μg/mL, 24 h, LPS/serum-stimulated
[11] = BEAS-2B, 10 μg/mL, 24 h, LPS/serum-stimulated
[12] = 5 μg/mL, vs stimulated control+
[13] = 10 μg/mL, vs stimulated control+
[14] = 20 μg/mL, vs stimulated control+
[15] = BEAS-2B, 5 μg/mL, 24 h, vs stimulated control+
[16] = BEAS-2B, 10 μg/mL, 24 h, vs stimulated control+
[17] = BEAS-2B, 20 μg/mL, 24 h, vs stimulated control+
[18] = in vitro, compared to a placebo

| SMILES | pg IL (cytokine release/100.000 cells) ([1]; 5 μg/mL) [pg/100.000 cells] | pg IL (cytokine release/100.000 cells) ([1]; 10 μg/mL) [pg/100.000 cells] | pg IL (cytokine release/100.000 cells) ([1]; 20 μg/mL) [pg/100.000 cells] | IL-8 mRNA accumulation compared with stimulated control (c+) [2] | IL-6 mRNA accumulation compared with stimulated control (c+) [3] | pg IL (cytokine release/100.000 cells) ([4]; BEAS-2B, 5 μg/mL, 24 h) [pg/100.000 cells] | pg IL (cytokine release/100.000 cells) ([4]; BEAS-2B, 10 μg/mL, 24 h) [pg/100.000 cells] | pg IL (cytokine release/100.000 cells) ([4]; BEAS-2B, 20 μg/mL, 24 h) [pg/100.000 cells] | % inhibition of proliferation ([5]; 5 μg/mL, LPS/serum-stimulated) | % inhibition of proliferation ([5]; 10 μg/mL, LPS/serum-stimulated) | % inhibition of proliferation [6, 10] | % inhibition of proliferation [6, 11] | pg IL (cytokine release/100.000 cells) ([7]; 5 μg/mL) [pg/100.000 cells] | pg IL (cytokine release/100.000 cells) ([7]; 10 μg/mL) [pg/100.000 cells] | pg IL (cytokine release/100.000 cells) ([7]; 20 μg/mL) [pg/100.000 cells] | pg IL (cytokine release/100.000 cells) ([8]; BEAS-2B, 5 μg/mL, 24 h) [pg/100.000 cells] | pg IL (cytokine release/100.000 cells) ([8]; BEAS-2B, 10 μg/mL, 24 h) [pg/100.000 cells] | pg IL (cytokine release/100.000 cells) ([8]; BEAS-2B, 20 μg/mL, 24 h) [pg/100.000 cells] | also measured |
| --- | --- | --- | --- | --- | --- | --- | --- | --- | --- | --- | --- | --- | --- | --- | --- | --- | --- | --- | --- |
| CCCCC/C=C\C/C=C\CCCCCCCC(=O)O [LA, cis-9,cis-12-octadecadienoic acid, reference compound] | 6820 ± 543 | 6252 ± 462 | 5420 ± 1032 | no effect | no effect | 1440 ± 78 | 1220 ± 120 | 1181 ± 256 | no effect | no effect | no effect | no effect | 3052 ± 292 | 2906 ± 530 | 2007 ± 924 | 1483 ± 209 | 1341 ± 110 | 1533 ± 121 | inhibition at 5 µg/mL ([1]; Homo sapiens, 5 μg/mL, vs stimulated control+, read-out: % inhibition of IL-8-secretion): 22.8 ± 5.2%; inhibition at 10 µg/mL ([1]; Homo sapiens, 10 μg/mL, vs stimulated control+, read-out: % inhibition of IL-8-secretion): 27.8 ± 10.8%; inhibition at 20 µg/mL ([1]; Homo sapiens, 20 μg/mL, vs stimulated control+, read-out: % inhibition of IL-8-secretion): 43.3 ± 14.3%; inhibition at 5 µg/mL ([4]; Homo sapiens, BEAS-2B, 5 μg/mL, 24 h, vs stimulated control+, read-out: % inhibition of IL-6-secretion): 23.1 ± 8.9%; inhibition at 10 µg/mL ([4]; Homo sapiens, BEAS-2B, 10 μg/mL, 24 h, vs stimulated control+, read-out: % inhibition of IL-6-secretion): 38.4 ± 6.6%; inhibition at 20 µg/mL ([4]; Homo sapiens, BEAS-2B, 20 μg/mL, 24 h, vs stimulated control+, read-out: % inhibition of IL-6-secretion): 50.2 ± 14.1%; inhibition at 20 µg/mL ([5]; Homo sapiens, 20 μg/mL, LPS/serum-stimulated): 8.4 ± 2.1%; effect on proliferation at lower concentrations ([5]; concentrations below 20 μg/mL): caused cell growth; effect on proliferation at lower concentrations ([6]; BEAS-2B, concentrations below 20 μg/mL, 24 h): caused cell growth; inhibition at 20 µg/mL ([6]; Homo sapiens, BEAS-2B, 20 μg/mL, 24 h, 5 μg LPS/mL + 10% serum from allergic donors): 4.7 ± 6.9%; inhibition at 5 µg/mL ([7]; Homo sapiens, 5 μg/mL, vs stimulated control+, read-out: % inhibition of IL-6-secretion): 32.1 ± 5.6%; inhibition at 10 µg/mL ([7]; Homo sapiens, 10 μg/mL, vs stimulated control+, read-out: % inhibition of IL-6-secretion): 35 ± 8.6%; inhibition at 20 µg/mL ([7]; Homo sapiens, 20 μg/mL, vs stimulated control+, read-out: % inhibition of IL-6-secretion): 60 ± 16.3%; inhibition at 5 µg/mL ([8]; Homo sapiens, BEAS-2B, 5 μg/mL, 24 h, vs stimulated control+, read-out: % inhibition of IL-8-secretion): 19.3 ± 8.7%; inhibition at 10 µg/mL ([8]; Homo sapiens, BEAS-2B, 10 μg/mL, 24 h, vs stimulated control+, read-out: % inhibition of IL-8-secretion): 30.6 ± 3.6%; inhibition at 20 µg/mL ([8]; Homo sapiens, BEAS-2B, 20 μg/mL, 24 h, vs stimulated control+, read-out: % inhibition of IL-8-secretion): 33.5 ± 5% |
| CCCCCC/C=C/C=C\CCCCCCCC(=O)O (single isomer, unassigned) [CLA, cis-9,trans-11 isomer of conjugated linoleic acid] | 6212 ± 513 | 5659 ± 812 | 6793 ± 545 | diminished | diminished | 983 ± 175 | 841 ± 184 | 792 ± 152 | 5.3 ± 3.7% | 15.4±3.6% | 7.9±5.1% | 19.3±5.0% | 2049 ± 262 | 2062 ± 707 | 1731 ± 387 | 1774 ± 154 | 1667 ± 160 | 1458 ± 136 | % inhibition of IL-8-secretion [1, 12]: 33.3 ± 8.1%; % inhibition of IL-8-secretion [1, 13]: 46.0±8.1%; % inhibition of IL-8-secretion [1, 14]: 35.9 ± 11.4%; % inhibition of IL-6-secretion [4, 15]: 59.9±7.1%; % inhibition of IL-6-secretion [4, 16]: 69.7 ± 7.6%; % inhibition of IL-6-secretion [4, 17]: 76.4±4.4%; reduced expression of IL-6 (summary statement) [4, 18]: about 70%; % inhibition of proliferation ([5]; 20 μg/mL, LPS/serum-stimulated): 17.4±2.8%; % inhibition of proliferation ([6]; BEAS-2B, 20 μg/mL, 24 h, 5 μg LPS/mL + 10% serum from allergic donors): 32.7±5.0%; inhibition of cell proliferation of bronchial epithelial cells (summary statement) ([6]; in vitro, epithelial cells, mainly bronchial epithelial cells): up to 30%; % inhibition of IL-6-secretion [7, 12]: 56.9±4.9%; % inhibition of IL-6-secretion [7, 13]: 62.3 ± 10.2%; % inhibition of IL-6-secretion [7, 14]: 68.6±5.3%; % inhibition of IL-8-secretion [8, 15]: 25.6±3.6%; % inhibition of IL-8-secretion [8, 16]: 38.8 ± 5.2%; % inhibition of IL-8-secretion [8, 17]: 55.2±5.2%; reduced expression of IL-8 (summary statement) [8, 18]: about 50%; apoptosis of eosinophilic granulocytes [9]: support of apoptosis |
